# Data reported in patent US20230295212A1 (ROME Therapeutics, Inc., priority 2022, published 2023).
# Where a name gives a salt, the structure may show the parent alone.
# Experiments:
# [1] = target: T1, human DNA polymerase γ (Homo sapiens, UniProt P54098); assay: Homogeneous time-resolved fluorescence human DNA polymerase γ assay; assay type: biochemical; conditions: triphosphates, room temperature 30 minutes
# T1 construct: purchased Gentaur
# T1 sequence (P54098 1-1239): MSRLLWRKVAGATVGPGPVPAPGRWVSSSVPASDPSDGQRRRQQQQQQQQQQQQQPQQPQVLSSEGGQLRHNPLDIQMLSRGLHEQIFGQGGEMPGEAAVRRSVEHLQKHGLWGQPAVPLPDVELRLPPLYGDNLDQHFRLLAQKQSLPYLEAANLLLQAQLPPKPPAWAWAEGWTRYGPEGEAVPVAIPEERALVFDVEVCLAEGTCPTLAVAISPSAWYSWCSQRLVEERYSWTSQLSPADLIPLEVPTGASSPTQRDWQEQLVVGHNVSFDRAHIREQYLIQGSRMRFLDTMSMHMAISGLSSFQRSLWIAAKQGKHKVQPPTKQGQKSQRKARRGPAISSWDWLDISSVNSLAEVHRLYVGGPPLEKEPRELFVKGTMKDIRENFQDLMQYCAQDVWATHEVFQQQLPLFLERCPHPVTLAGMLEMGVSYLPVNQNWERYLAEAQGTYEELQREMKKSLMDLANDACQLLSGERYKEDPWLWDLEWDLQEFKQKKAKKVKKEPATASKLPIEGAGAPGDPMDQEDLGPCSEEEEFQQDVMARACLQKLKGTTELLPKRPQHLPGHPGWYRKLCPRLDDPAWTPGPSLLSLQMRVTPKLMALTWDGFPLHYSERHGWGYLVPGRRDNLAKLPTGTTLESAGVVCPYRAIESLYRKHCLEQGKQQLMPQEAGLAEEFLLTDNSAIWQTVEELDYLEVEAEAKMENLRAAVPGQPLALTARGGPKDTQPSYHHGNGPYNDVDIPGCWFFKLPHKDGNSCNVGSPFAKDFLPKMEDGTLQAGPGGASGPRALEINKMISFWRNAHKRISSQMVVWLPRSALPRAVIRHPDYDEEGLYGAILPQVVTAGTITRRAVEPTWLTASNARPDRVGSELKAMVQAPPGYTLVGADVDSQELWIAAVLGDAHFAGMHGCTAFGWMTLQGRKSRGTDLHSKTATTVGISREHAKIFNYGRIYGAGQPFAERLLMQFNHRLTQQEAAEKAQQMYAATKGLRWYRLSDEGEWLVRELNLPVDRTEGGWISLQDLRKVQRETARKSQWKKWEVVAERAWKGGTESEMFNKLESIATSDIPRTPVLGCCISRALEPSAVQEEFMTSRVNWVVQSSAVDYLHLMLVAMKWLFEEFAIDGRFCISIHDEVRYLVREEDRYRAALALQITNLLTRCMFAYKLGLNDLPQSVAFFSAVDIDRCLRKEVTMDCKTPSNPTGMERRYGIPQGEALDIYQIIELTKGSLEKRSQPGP
# Procedure: Exemplary compounds were tested for ability to inhibit human DNA polymerase γ using a homogeneous time-resolved fluorescence (HTRF) assay. Off-target inhibition of DNA polymerase γ by NRTIs can result in undesired mitochondrial toxicity. Assay procedures and results are described below.
# The human DNA polymerase γ homogeneous time-resolved fluorescence (HTRF) assay was performed with recombinant human DNA polymerase γ protein (Gentaur) in a 384-well format. Test compound was serially diluted in water and further diluted in the assay buffer (28 mM Tris-HCl, 14 mM NaCl, 0.56 mM MgCl2, 0.011% Triton X-100, 0.11 mg/ml BSA, 1.1 mM DTT, pH 8.1). The serially diluted compound was mixed with polymerase γ, 10 nM of pre-annealed template/biotin-primer pair (synthesized at Geneway Biotechnology), 100 nM of Fluorescein-12-dCTP fluorescent probe (PerkinElmer), and 10 μM dGTP/dATP/dTTP (ThermoFisher Scientific) in the assay buffer. The template/biotin-primer sequences were as follows:
# (§1) After incubating at room temperature for 30 minutes, the detection reagent (5 mM EDTA with streptavidin-terbium cryptate, Cisbio Bioassay) in the PPI buffer (Cisbio Bioassay) was added, and the mixture was incubated at room temperature for 60 minutes. At the end of the incubation, fluorescence was read at ex/em=337/485 nm and ex/em=337/520 nm on an Envision 2104 plate reader (PerkinElmer). The fluorescence ratio at 520/485 nm was used for the calculation. […] The IC50 was calculated by fitting the compound dose inhibition curve with a 4-parameter non-linear regression equation.
# [2] = target: T2, LINE1 reverse transcriptase (recombinant MBP-tagged LINE1 protein (238-1061)) (Homo sapiens, UniProt O00370); assay: Homogeneous time-resolved fluorescence (HTRF) LINE1 RT assay; assay type: biochemical; conditions: triphosphate analogs, LINE1 enzyme 64 ng/well, 25° C. 60 minutes
# T2 construct: recombinant MBP-tagged LINE1 protein (238-1061); made in house
# Procedure: Exemplary triphosphate analogs were tested for the ability to inhibit LINE1 reverse transcriptase using a homogeneous time-resolved fluorescence (HTRF) assay. Assay procedures and results are described below.
# The LINE1 reverse transcriptase homogeneous time-resolved fluorescence (HTRF) assay was performed with recombinant MBP-tagged LINE1 protein (238-1061) (generated and purified according to procedures in Dai L. et al. BMC Biochemistry 2011; 12:18) in a 384-well format. Test compound was serially diluted in DMSO and further diluted in the assay buffer (50 mM Tris-HCl, 50 mM KCl, 10 mM MgCl2, 10 mM DTT, pH 8.1) to achieve a final DMSO concentration of 1%. The serially diluted compound was mixed with 64 ng/well of LINE1 enzyme, 5 nM of pre-annealed template/biotin-primer pair (synthesized at Generay Biotechnology), 10 nM of Fluorescein-12-dCTP fluorescent probe (PerkinElmer), and 1 μM dGTP/dATP/dTTP (ThermoFisher Scientific) in the assay buffer. The template/biotin-primer sequences were as follows:
# as §1, with “25° C.” for “room temperature”, “60” for “30”, “(20” for “(5”, “30” for “60”
IC50 [1] [nM],IC50 [2] [nM],SMILES
> 300000,108,CC[C@]1(COP(=O)(O)OP(=O)(O)OP(=O)(O)O)O[C@@H](n2ccc(N)nc2=O)C[C@@H]1O [44-TP]
≤ 50000,47.5,Nc1ccn([C@H]2C[C@H](O)[C@@](CCl)(COP(=O)(O)OP(=O)(O)OP(=O)(O)O)O2)c(=O)n1 [Compound 2-TP]
50000 to 100000,272,"Nc1nc(=O)n([C@H]2C[C@H](O)[C@@](CCl)(COP(=O)(O)OP(=O)(O)OP(=O)(O)O)O2)cc1F [Compound 14-TP, ((2R,3S,5R)-5-(4-amino-5-fluoro-2-oxopyrimidin-1(2H)-yl)-2-(chloromethyl)-3-hydroxytetrahydrofuran-2-yl)methyl tetrahydrogen triphosphate TEA Salt]"
200000 to 300000,13.7,C#C[C@]1(COP(=O)(O)OP(=O)(O)OP(=O)(O)O)O[C@@H](n2ccc(N)nc2=O)[C@@H](F)[C@@H]1O [Compound 35-TP]
200000 to 300000,831,Nc1ccn([C@@H]2O[C@](CCl)(COP(=O)(O)OP(=O)(O)OP(=O)(O)O)[C@@H](O)[C@@H]2F)c(=O)n1 [Compound 40-TP]
200000 to 300000,81,C=C[C@]1(COP(=O)(O)OP(=O)(O)OP(=O)(O)O)O[C@@H](n2ccc(N)nc2=O)C[C@@H]1O [Compound 43-TP]
200000 to 300000,430,Nc1nc(=O)n([C@@H]2O[C@](CCl)(COP(=O)(O)OP(=O)(O)OP(=O)(O)O)[C@@H](O)[C@@H]2F)cc1F [Compound 67-TP]
